Source: ChEMBL document CHEMBL4507319 (2021)

Experiments:
Conditions in all cases: Compound concentration 1.0 uM
[1] = target: T1, Ephrin type-A receptor 3 (Homo sapiens) (UniProt P29320); assay: EphA3(h) Eurofins kinase panel
T1 sequence (whole entry): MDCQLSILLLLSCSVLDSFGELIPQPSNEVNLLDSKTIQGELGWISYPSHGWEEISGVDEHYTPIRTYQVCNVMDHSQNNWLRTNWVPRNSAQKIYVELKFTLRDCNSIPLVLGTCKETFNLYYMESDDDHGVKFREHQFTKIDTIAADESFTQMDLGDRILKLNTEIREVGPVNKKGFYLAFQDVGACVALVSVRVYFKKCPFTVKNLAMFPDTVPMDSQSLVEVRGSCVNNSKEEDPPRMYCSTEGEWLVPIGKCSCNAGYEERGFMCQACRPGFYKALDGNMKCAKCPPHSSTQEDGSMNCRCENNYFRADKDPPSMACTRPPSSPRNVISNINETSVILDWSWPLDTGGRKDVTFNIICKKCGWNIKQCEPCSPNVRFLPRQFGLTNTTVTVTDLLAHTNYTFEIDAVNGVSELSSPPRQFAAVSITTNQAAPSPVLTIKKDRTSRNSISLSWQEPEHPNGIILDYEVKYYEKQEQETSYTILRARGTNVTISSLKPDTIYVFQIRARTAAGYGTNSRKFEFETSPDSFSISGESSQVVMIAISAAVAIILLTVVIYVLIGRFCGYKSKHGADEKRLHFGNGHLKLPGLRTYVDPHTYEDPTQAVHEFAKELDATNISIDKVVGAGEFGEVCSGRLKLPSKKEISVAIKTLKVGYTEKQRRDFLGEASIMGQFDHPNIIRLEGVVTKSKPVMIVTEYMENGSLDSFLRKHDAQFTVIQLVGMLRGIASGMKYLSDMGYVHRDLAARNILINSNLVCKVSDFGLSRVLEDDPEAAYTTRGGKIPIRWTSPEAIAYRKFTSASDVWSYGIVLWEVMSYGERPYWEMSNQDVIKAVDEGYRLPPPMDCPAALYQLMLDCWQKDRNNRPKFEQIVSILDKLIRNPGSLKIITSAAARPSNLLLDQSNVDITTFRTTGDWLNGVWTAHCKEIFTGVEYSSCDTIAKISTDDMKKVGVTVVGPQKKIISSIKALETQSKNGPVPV

[2] = target: T2, Interleukin-1 receptor-associated kinase 4 (Homo sapiens) (UniProt Q9NWZ3); assay: IRAK4(h) Eurofins kinase panel
T2 sequence (whole entry): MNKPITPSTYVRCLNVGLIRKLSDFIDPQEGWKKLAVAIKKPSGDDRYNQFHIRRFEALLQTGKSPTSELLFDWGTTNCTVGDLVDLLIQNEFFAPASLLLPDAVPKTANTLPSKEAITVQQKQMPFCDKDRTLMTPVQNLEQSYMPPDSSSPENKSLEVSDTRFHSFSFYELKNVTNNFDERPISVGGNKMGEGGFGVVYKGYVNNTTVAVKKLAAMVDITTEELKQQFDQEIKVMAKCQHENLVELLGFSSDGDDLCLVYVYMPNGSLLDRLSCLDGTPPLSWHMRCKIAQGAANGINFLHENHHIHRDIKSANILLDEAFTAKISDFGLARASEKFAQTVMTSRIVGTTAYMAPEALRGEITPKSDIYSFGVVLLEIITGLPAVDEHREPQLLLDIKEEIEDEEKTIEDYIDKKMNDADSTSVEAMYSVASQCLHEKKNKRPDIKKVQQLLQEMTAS

[3] = target: Mitogen-activated protein kinase 9 (Homo sapiens) (UniProt P45984); assay: JNK2alpha2(h) Eurofins kinase panel
Sequence of Mitogen-activated protein kinase 9 (Homo sapiens) (P45984 whole entry, looked up): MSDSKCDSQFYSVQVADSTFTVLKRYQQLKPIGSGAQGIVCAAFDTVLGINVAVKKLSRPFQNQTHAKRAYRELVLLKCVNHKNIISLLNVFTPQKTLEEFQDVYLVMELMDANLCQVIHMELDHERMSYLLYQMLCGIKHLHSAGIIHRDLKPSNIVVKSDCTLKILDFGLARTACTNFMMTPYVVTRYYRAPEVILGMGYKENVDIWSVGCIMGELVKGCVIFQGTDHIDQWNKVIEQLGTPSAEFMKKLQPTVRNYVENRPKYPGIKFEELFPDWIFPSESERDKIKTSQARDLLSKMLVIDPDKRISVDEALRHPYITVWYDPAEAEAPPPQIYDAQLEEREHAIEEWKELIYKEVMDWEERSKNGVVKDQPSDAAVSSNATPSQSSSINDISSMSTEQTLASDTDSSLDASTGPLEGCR

[4] = target: Serine/threonine-protein kinase PAK 2 (Homo sapiens) (UniProt Q13177); assay: PAK2(h) Eurofins kinase panel
Sequence of Serine/threonine-protein kinase PAK 2 (Homo sapiens) (Q13177 whole entry): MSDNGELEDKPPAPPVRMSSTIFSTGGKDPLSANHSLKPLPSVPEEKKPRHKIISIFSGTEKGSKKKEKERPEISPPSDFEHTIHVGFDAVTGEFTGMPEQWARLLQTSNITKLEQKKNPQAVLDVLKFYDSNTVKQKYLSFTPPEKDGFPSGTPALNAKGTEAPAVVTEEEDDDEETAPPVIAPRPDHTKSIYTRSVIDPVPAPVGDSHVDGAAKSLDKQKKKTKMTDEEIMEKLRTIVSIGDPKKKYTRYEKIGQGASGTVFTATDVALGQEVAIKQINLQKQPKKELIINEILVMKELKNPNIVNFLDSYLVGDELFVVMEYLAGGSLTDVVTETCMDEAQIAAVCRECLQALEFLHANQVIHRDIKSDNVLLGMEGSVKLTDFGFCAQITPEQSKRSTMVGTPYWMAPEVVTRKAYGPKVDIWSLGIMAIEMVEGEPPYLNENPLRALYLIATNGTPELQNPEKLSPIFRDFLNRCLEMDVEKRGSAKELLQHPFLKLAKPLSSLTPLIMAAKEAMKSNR

[5] = target: T3, Serine/threonine-protein kinase Sgk3 (Homo sapiens) (UniProt Q96BR1); assay: SGK3(h) Eurofins kinase panel
T3 sequence (whole entry): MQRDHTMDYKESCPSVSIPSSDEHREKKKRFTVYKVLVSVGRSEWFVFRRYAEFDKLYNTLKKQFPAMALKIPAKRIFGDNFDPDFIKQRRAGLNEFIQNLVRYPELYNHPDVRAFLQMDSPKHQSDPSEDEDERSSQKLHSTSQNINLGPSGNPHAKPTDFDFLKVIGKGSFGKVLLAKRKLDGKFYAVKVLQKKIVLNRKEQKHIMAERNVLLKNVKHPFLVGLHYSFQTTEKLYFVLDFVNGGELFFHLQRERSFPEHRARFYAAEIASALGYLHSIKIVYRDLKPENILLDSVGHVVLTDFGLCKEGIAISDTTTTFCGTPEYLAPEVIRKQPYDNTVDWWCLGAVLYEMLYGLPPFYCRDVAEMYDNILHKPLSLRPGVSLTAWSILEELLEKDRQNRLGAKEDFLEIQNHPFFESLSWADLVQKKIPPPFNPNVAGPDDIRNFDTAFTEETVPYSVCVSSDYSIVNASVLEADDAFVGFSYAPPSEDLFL

[6] = target: PI3-kinase p110-delta/p85-alpha (Homo sapiens) (UniProt P27986+O00329); assay: PI3 Kinase(p110d/p85a)(h) Eurofins kinase panel; type: protein-complex assay
[7] = target: Ribosomal protein S6 kinase alpha-3 (Homo sapiens, UniProt P51812)
Sequence of Ribosomal protein S6 kinase alpha-3 (P51812 whole entry): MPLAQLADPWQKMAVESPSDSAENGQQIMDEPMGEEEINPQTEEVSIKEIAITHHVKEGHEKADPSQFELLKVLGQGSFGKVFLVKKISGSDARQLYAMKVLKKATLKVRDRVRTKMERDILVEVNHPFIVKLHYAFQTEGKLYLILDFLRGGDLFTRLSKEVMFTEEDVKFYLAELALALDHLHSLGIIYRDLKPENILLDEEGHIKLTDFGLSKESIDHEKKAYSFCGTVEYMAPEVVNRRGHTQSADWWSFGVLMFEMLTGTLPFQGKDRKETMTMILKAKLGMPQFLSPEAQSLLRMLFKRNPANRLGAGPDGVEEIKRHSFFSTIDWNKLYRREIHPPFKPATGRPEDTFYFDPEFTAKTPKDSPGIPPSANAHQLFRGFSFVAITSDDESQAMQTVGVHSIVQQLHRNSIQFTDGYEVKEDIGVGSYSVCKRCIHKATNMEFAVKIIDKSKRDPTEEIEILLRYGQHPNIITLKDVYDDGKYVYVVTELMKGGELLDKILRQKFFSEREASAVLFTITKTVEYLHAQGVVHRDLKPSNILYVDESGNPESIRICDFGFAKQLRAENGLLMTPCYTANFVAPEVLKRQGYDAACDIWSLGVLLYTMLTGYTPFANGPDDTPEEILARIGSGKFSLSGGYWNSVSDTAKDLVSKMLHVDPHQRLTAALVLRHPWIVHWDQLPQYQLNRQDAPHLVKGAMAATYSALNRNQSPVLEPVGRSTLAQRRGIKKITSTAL

Measured: % residual kinase activity

CCc1ccccc1C(=O)Nc1n[nH]c2c(C)c(F)c(C3C(C#N)=C(C)N(C)C(C)=C3C#N)cc12 [BAY-3827]
inactive: [1] 112% | [2] 103% | [3] 88% | [4] 105% | [5] 95% | [6] 103% | [7] 0%
